Structures can show the parent of a compound that is named as a salt.
Tested on: p62-dependent mitophagy
Test: Luciferase-p62 assay (Fluc-p62 clearance) in mouse embryonic fibroblasts
Type: cell-based
Conditions: for Mean Luminescence: Luciferase-p62 assay, mouse embryonic fibroblasts (MEFs), compounds at 10 μM; for % Activity over baseline: percentage of Luciferase-p62 clearance relative to baseline (mean luminescence in the absence of doxycycline induction); for % Activity over baseline / % Activity relative to Rapamycin: MEFs, 10 μM; for % Activity relative to Rapamycin: percentage of activity relative to rapamycin tested in the same experiment at the same concentration
How it was run: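 MEFs with doxycycline-inducible Fluc-p62; after induction, doxycycline removed and cells treated 48 h with compounds at 10 μM. Fluc-p62 clearance, taken as mitophagy, read by ONE-Glo+Tox luciferase with viability. Vehicle (DMSO) as negative control; activity also expressed relative to rapamycin.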

| Compound | Mean Luminescence | % Activity over baseline [%] | % Activity relative to Rapamycin [%] |
| --- | --- | --- | --- |
| C=CCc1ccc(O)c(-c2cc(CC=C)ccc2O)c1 [Magnolol] | 950.75 | 41.24 | 74.31 |
| COc1nc2ccc(Br)cc2cc1[C@@H](c1ccccc1)[C@@](O)(CCN(C)C)c1cccc2ccccc12 [Bedaquiline] | 802.99 |  |  |
| CC(=O)C(C)=NO [2,3-Butanedione-2-monoxime] | 762.32 | 52.89 | 95.29 |
| CC1(C)O[C@H]2CC(=O)OC[C@]23[C@H]2CC[C@@]4(C)[C@H](c5ccoc5)OC(=O)[C@H]5O[C@]54[C@]2(C)C(=O)C[C@@H]13 [Limonin] | 753.03 | 53.46 | 96.33 |
| CC(=O)CCC(=O)O [Levulinic acid] | 771.58 | 52.32 | 94.26 |
| Clc1ccc(COC(Cn2ccnc2)c2ccc(Cl)cc2Cl)cc1 (centres unmarked) [Econazole nitrate] | 359.76 | 77.77 | 140.12 |
| O[C@H]1[C@H](O)[C@@H](O)[C@H](O)[C@@H](O)[C@H]1O [myo-Inositol] | 670.16 | 58.58 | 105.55 |
| N[C@@H]1CCCCN(c2c(F)cc3c(=O)c(C(=O)O)cn(C4CC4)c3c2Cl)C1 [Besifloxacin HCl] | 777.82 | 51.93 | 93.56 |
| CC(C)C[C@H]1C(=O)N2CCC[C@H]2[C@]2(O)O[C@](NC(=O)[C@@H]3C=C4c5cccc6[nH]c(Br)c(c56)C[C@H]4N(C)C3)(C(C)C)C(=O)N12 [Bromocriptine mesylate] | 685.00 | 57.67 | 103.90 |
| COc1cccc2c1C(=O)c1c(O)c3c(c(O)c1C2=O)C[C@@](O)(C(=O)CO)C[C@@H]3O[C@H]1C[C@H](N)[C@H](O[C@@H]2CCCCO2)[C@H](C)O1 [Pirarubicin] | 978.32 | 39.54 | 71.24 |
| Nc1ccc(O)cc1 [Compound 4-Aminophenol, 4-Aminophenol] | 482.45 | 70.18 | 126.45 |
| CC(=O)[C@H]1CC[C@H]2[C@@H]3CC=C4C[C@@H](O)CC[C@]4(C)[C@H]3CC[C@]12C [Pregnenolone] | 870.09 | 46.23 | 83.29 |
| CCN(CC)CC#CCOC(=O)C(O)(c1ccccc1)C1CCCCC1 (centres unmarked) [Oxybutynin chloride] | 882.87 | 45.44 | 81.87 |
| COc1ccc(CC(=O)O)cc1 [4-Methoxyphenylacetic acid] | 929.33 | 42.57 | 76.69 |
| CCC12C=CCN3CC[C@@]4(c5ccc(OC)cc5N(C)[C@H]4[C@@](O)(C(=O)OC)[C@@H]1OC(C)=O)[C@@H]32 (some centres unmarked) [Vindoline] | 930.98 | 42.46 | 76.51 |
| OCCc1ccc(O)c(O)c1 [Hydroxytyrosol] | 839.13 | 48.14 | 86.74 |
| O=c1[nH]cc(F)c(=O)[nH]1 [Fluorouracil (Adrucil)] | 848.60 | 47.56 | 85.68 |
| CN1[C@@H]2CC[C@H]1CC(=O)C2 [Tropinone] | 896.55 | 44.59 | 80.34 |
| CCCCc1oc2ccc(NS(C)(=O)=O)cc2c1C(=O)c1ccc(OCCCN(CCCC)CCCC)cc1 [Dronedarone] | 550.43 | 65.98 | 118.89 |
| CO/N=C1\C[C@]2(C[C@@H]3C[C@@H](C/C=C(\C)C[C@@H](C)/C=C/C=C4\CO[C@@H]5[C@H](O)C(C)=C[C@@H](C(=O)O3)[C@]45O)O2)O[C@H](/C(C)=C/C(C)C)[C@H]1C [Moxidectin] | 476.19 | 70.57 | 127.15 |
| CC(=O)O[C@]1(C(C)=O)CC[C@H]2[C@@H]3C[C@H](C)C4=CC(=O)CC[C@]4(C)[C@H]3CC[C@@]21C [Medroxyprogesterone acetate] | 800.04 | 50.56 | 91.09 |
| CN1CCN2c3ccccc3Cc3ccccc3C2C1 (centres unmarked) [Mianserin HCl] | 960.23 | 40.66 | 73.25 |
| C=C1CCC2C(C=C(C)C(=O)C3(OC(C)=O)CC(C)C(OC(=O)c4ccccc4)C3C1OC(C)=O)C2(C)C (centres unmarked) [5,15-Diacetyl-3-benzoyllathyrol] | 927.14 | 42.70 | 76.94 |

| Compound | Mean Luminescence | % Activity over baseline [%] | % Activity relative to Rapamycin [%] |
| --- | --- | --- | --- |
| C#C[C@]1(O)CC[C@H]2[C@@H]3CCC4=CC(=O)CC[C@]4(C)[C@H]3CC[C@@]21C [Ethisterone] | 996.32 | 38.43 | 69.24 |
| Clc1ccc(COC(Cn2ccnc2)c2ccc(Cl)cc2Cl)c(Cl)c1 (centres unmarked) [Miconazole] | 297.40 | 81.62 | 147.06 |
| CN(Cc1ccc(C(C)(C)C)cc1)Cc1cccc2ccccc12 [Butenafine HCl] | 582.45 | 64.00 | 115.32 |
| O=C(O)CC(O)C(=O)O (centres unmarked) [Malic acid] | 962.28 | 40.53 | 73.03 |
| Cc1cnc(C)cn1 [2,5-Dimethyl pyrazine] | 842.32 | 47.94 | 86.38 |
| C[C@H](CCC(=O)O)[C@H]1CC[C@H]2[C@@H]3[C@H](O)C[C@@H]4C[C@H](O)CC[C@]4(C)[C@H]3CC[C@]12C [Chenodeoxycholic Acid] | 999.71 | 38.22 | 68.86 |
| CC(=O)c1cc(O)ccc1O [2′,5′-Dihydroxyacetophenone] | 709.63 | 56.14 | 101.16 |
| Nc1nc(N)nc(N)n1 [Melamine] | 960.76 | 40.62 | 73.19 |
| C/C=C(\C)C(=O)O [Tiglic acid] | 947.74 | 41.43 | 74.64 |
| O=C(O)CCNC(=O)c1ccccc1 [Betamipron] | 923.38 |  |  |
| NC[C@H]1O[C@H](O[C@H]2[C@H](O)[C@@H](O[C@H]3O[C@H](CO)[C@@H](O)[C@H](N)[C@H]3O)[C@H](N)C[C@@H]2N)[C@H](N)C[C@@H]1O [Tobramycin] | 971.48 | 39.96 | 72.00 |
| Picrotoxin | 868.69 | 46.31 | 83.45 |
| CN[C@@H]1[C@H](O)[C@H](NC)[C@H]2O[C@@]3(O)C(=O)C[C@@H](C)O[C@H]3O[C@@H]2[C@H]1O [Spectinomycin dihydrochloride] | 953.21 | 41.09 | 74.04 |
| Clc1ccc(C(Cn2ccnc2)OCc2ccsc2Cl)c(Cl)c1 (centres unmarked) [Tioconazole] | 537.96 | 66.75 | 120.27 |
| O=C(O)CC(=O)O [Malonic acid] | 865.42 | 46.52 | 83.81 |
| CC[C@@H](C(=O)[C@@H](C)[C@@H](O)[C@H](C)[C@@H]1O[C@@H]([C@@H](CC)C(=O)O)CC[C@@H]1C)[C@H]1O[C@]2(C=C[C@@H](O)[C@]3(CC[C@@](C)([C@H]4CC[C@](O)(CC)[C@H](C)O4)O3)O2)[C@H](C)C[C@@H]1C [Salinomycin] | 792.70 | 51.01 | 91.91 |
| CC(Cc1ccc(O)c(O)c1)C(C)Cc1ccc(O)c(O)c1 (centres unmarked) [Nordihydroguaiaretic acid] | 964.84 | 40.37 | 72.74 |
| CN1CCN(c2cc3c(cc2F)c(=O)c(C(=O)O)cn3-c2ccc(F)cc2)CC1 [Difloxacin HCl] | 980.30 | 39.42 | 71.02 |
| CC1(C)[C@@H](OC(=O)CCC(=O)O)CC[C@]2(C)[C@H]3C(=O)C=C4[C@@H]5C[C@@](C)(C(=O)O)CC[C@]5(C)CC[C@@]4(C)[C@]3(C)CC[C@@H]12 [Carbenoxolone disodium] | 856.44 | 47.07 | 84.81 |
| C[C@]12CC[C@@H]3c4ccc(OC(=O)c5ccccc5)cc4CC[C@H]3[C@@H]1CC[C@@H]2O [Estradiol Benzoate] | 970.65 | 40.01 | 72.09 |
| COc1ccc(/C=C/C(=O)/C=C(O)/C=C/c2ccc(OC)c(OC)c2)cc1OC [ASC-J9] | 664.12 | 58.96 | 106.23 |
| CC1=C2C(=O)O[C@@H](c3ccoc3)[C@]2(C)CCC1 [Fraxinellone] | 972.50 | 39.90 | 71.89 |
